Earlier results, collected in article PMC6311893, “Computational prediction of plasma protein binding of cyclic peptides from small molecule experimental data using sparse modeling techniques” (BMC Bioinformatics, 2018).

Test system: plasma protein
Details: fraction bound to plasma protein; small molecule dataset, sheet 1-SM (Set Dte = test, Dtr = training); ref Ingle et al.; cited from earlier work

Molecule	PPB (fb)
CCN[C@H]1C[C@H](C)S(=O)(=O)c2sc(S(N)(=O)=O)cc21 [dorzolamide]	0.3
C=CC1=C(C(=O)O)N2C(=O)[C@@H](NC(=O)/C(=N\O)c3csc(N)n3)[C@H]2SC1 [cefdinir]	0.65
O=C1NCCN1c1ncc([N+](=O)[O-])s1 [niridazole]	0.85
N[C@@H]1CN(c2c(F)cc3c(=O)c(C(=O)O)cn([C@@H]4C[C@@H]4F)c3c2Cl)CC12CC2 [Sitafloxacin]	0.49
COc1cccc(-n2cc(C(=O)O)c(=O)c3cc(F)c(N4CCN(C)CC4)cc32)c1 [5ba(m-OCH3__N-CH3)]	0.54
COc1ccccc1-n1cc(C(=O)O)c(=O)c2cc(F)c(N3CCNCC3)cc21 [5a(o-OCH3)]	0.29
O=C(O)Cc1ccccc1Nc1c(Cl)cccc1Cl [diclofenac acid]	0.99
COC(=O)[C@H](c1ccccc1Cl)N1CCc2sccc2C1 [clopidogrel]	0.98
CN(C)C(=O)Oc1cc(OC(=O)N(C)C)cc(C(O)CNC(C)(C)C)c1 (stereo not shown) [bambuterol]	0.45
C#C[C@]1(O)CC[C@H]2[C@@H]3CCC4=CCCC[C@@H]4[C@H]3C(=C)C[C@@]21CC [desogestrel]	0.98
CC[C@@]1(O)C(=O)OCc2c1cc1n(c2=O)Cc2cc3ccccc3nc2-1 [Camptothecin]	0.98
CC1(C)SC2C(NC(=O)C(F)c3cccc(N)c3)C(=O)N2C1C(=O)O (stereo not shown) [penicillin30]	0.26
CC(C)(Oc1ccc(C2CC2(Cl)Cl)cc1)C(=O)O (stereo not shown) [ciprofibrate]	0.95
CC(C)(O)C(Cl)(Cl)Cl [chlorobutanol]	0.55
O=P(O)(O)OC(Cn1cncn1)(Cn1cncn1)c1ccc(F)cc1F [Fosfluconazole]	0.96
CCCc1cc(=O)[nH]c(=S)[nH]1 [Propylthiouracil]	0.81
N[C@@H]1CON=C1O [cycloserine]	0.2
CC(=O)[C@]1(O)Cc2c(O)c3c(c(O)c2[C@@H](O[C@H]2C[C@H](N)[C@H](O)[C@H](C)O2)C1)C(=O)c1ccccc1C3=O [Idarubicin]	0.95
Cc1ccc(NC(=O)c2ccc(CN3CCNCC3)cc2)cc1Nc1nccc(-c2cccnc2)n1 [N-desmethyl-imatinib]	0.7
CC1(C)[C@@H](OC(=O)CCC(=O)O)CC[C@]2(C)[C@H]3C(=O)C=C4[C@@H]5C[C@@](C)(C(=O)O)CC[C@]5(C)CC[C@@]4(C)[C@]3(C)CC[C@@H]12 [carbenoxolone]	0.99
NC(=O)N1c2ccccc2CC(O)c2ccccc21 (stereo not shown) [10-hydroxycarbazepine]	0.62
COCC(=O)O[C@]1(CCN(C)CCCc2nc3ccccc3[nH]2)CCc2cc(F)ccc2[C@@H]1C(C)C [Mibefradil]	0.99

Same assay, conditions: fraction bound to plasma protein; small molecule dataset, sheet 1-SM, Set Dtr; ref Ingle et al.; cited from earlier work

Molecule	PPB (fb)
COc1cc2c(cc1O)CCNC21CSC2c3c(OC(C)=O)c(C)c4c(c3C(COC1=O)N1C(O)C3Cc5cc(C)c(OC)c(O)c5C(C21)N3C)OCO4 (stereo not shown) [Trabectedin (ET-743__ Yondelis)]	0.94
CCOc1ccc(NC(C)=O)cc1 [Phenacetin]	0.41
C=CCN1CC[C@]23c4c5ccc(O)c4O[C@H]2C(=O)CC[C@@]3(O)[C@H]1C5 [Naloxone]	0.45
CCCCN1CCCCC1C(=O)Nc1c(C)cccc1C (stereo not shown) [Bupivacaine]	0.95
NCCCC[C@H](N[C@@H](CCc1ccccc1)C(=O)O)C(=O)N1CCC[C@H]1C(=O)O [Lisinopril]	0.05
Cc1onc(-c2ccccc2)c1-c1ccc(S(N)(=O)=O)cc1 [valdecoxib]	0.98
O=C(O)c1cc(-c2ccc(F)cc2F)ccc1O [Diflunisal]	0.99
CC(C)[C@H]1CC[C@H](C(=O)N[C@H](Cc2ccccc2)C(=O)O)CC1 [Nateglinide]	0.98
Nc1ccn([C@H]2CC[C@@H](CO)O2)c(=O)n1 [zalcitabine]	0.03
NC(N)=Nc1nc(CSCCC(N)=NS(N)(=O)=O)cs1 [Famotidine]	0.16
CCCNC(C)C(=O)Nc1ccccc1C (stereo not shown) [Prilocaine]	0.39
Cc1[nH]c(=O)c(C#N)cc1-c1ccncc1 [Milrinone]	0.85
COc1ccc([C@@H]2Sc3ccccc3N(CCN(C)C)C(=O)[C@@H]2OC(C)=O)cc1 [Diltiazem]	0.81
CN1CCc2cccc3c2[C@H]1Cc1ccc(O)c(O)c1-3 [Apomorphine]	0.94
Nc1cc(-c2ccncc2)c[nH]c1=O [Amrinone]	0.11
Cc1ccc(-c2ncc(Cl)cc2-c2ccc(S(C)(=O)=O)cc2)cn1 [Etoricoxib]	0.92
OCCN1CCN(CC/C=C2/c3ccccc3Sc3ccc(Cl)cc32)CC1 [zuclopenthixol]	0.98
CCC1=C(C)CN(C(=O)NCCc2ccc(S(=O)(=O)NC(=O)N[C@H]3CC[C@H](C)CC3)cc2)C1=O [Glimepiride]	0.99

Same assay, conditions: fraction bound to plasma protein; small molecule dataset, sheet 1-SM; ref Ingle et al.; cited from earlier work

Molecule	PPB (fb)
CC(C(=O)O)c1ccc(C(=O)c2ccccc2)s1 (stereo not shown) [tiaprofenic acid]	0.98
CC(=O)O[C@H]1C[C@@]2(C)[C@@H](C[C@@H](O)[C@H]3[C@@]4(C)CC[C@@H](O)[C@@H](C)[C@@H]4CC[C@@]32C)/C1=C(\CCC=C(C)C)C(=O)O [fusidic acid]	0.95
O=C(O)c1ccc(O)cc1 [p-hydroxybenzoic acid]	0.35
COc1cnc(NS(=O)(=O)c2ccc(N)cc2)nc1 [sulfametoxydiazine]	0.83
CN1CCN(CCCN2c3ccccc3Sc3ccccc32)CC1 [perazine]	0.95
CC(C)(C)NC[C@H](O)COc1nsnc1N1CCOCC1 [Timolol]	0.1
[H]/N=C(/N)N[C@H]1[C@H](O)[C@@H](O)[C@H](O[C@@H]2O[C@@H](C)[C@](O)(C=O)[C@H]2O[C@@H]2O[C@@H](CO)[C@H](O)[C@@H](O)[C@@H]2NC)[C@@H](N/C(N)=N\[H])[C@@H]1O [Streptomycin]	0.37
CC1(C)SC2C(NC(=O)c3ccccc3)C(=O)N2C1C(=O)O (stereo not shown) [penicillin14]	0.87
CC1(C)SC2C(NC(=O)c3ccc4ccccc4c3)C(=O)N2C1C(=O)O (stereo not shown) [penicillin65]	0.96
Cc1c(O)cccc1C(=O)N[C@@H](CSc1ccccc1)[C@H](O)CN1C[C@H]2CCCC[C@H]2C[C@H]1C(=O)NC(C)(C)C [nelfinavir]	0.99
CC(C)OC(=O)OCOP(=O)(CO[C@H](C)Cn1cnc2c(N)ncnc21)OCOC(=O)OC(C)C [tenofovir disoproxil]	0.07
CCCCC(=O)N(Cc1ccc(-c2ccccc2-c2nnn[nH]2)cc1)[C@H](C(=O)O)C(C)C [Valsartan]	0.95
CC1(C)SC2C(NC(=O)COc3ccc(F)cc3)C(=O)N2C1C(=O)O (stereo not shown) [penicillin54]	0.81
COc1c(C)nc2ccccc2c1C(=O)NC1C(=O)N2C1SC(C)(C)C2C(=O)O (stereo not shown) [penicillin77]	0.62
[H]/N=C(/N)NS(=O)(=O)c1ccc(N)cc1 [sulfaguanidine]	0.08
COc1cc(NCc2ccc3nc(N)nc(N)c3c2C)cc(OC)c1OC [Trimetrexate]	0.96
Fc1ccc(C(c2ccc(F)cc2)N2CCN(C/C=C/c3ccccc3)CC2)cc1 [flunarizine]	0.95
COc1ccc(C(N)C(=O)NC2C(=O)N3C2SC(C)(C)C3C(=O)O)cc1 (stereo not shown) [penicillin34]	0.38
O=C1Cc2cc(CCN3CCN(c4nsc5ccccc45)CC3)c(Cl)cc2N1 [Ziprasidone]	0.99
O=C(O)c1ccccc1Nc1cccc(C(F)(F)F)c1 [flufenamic acid]	0.9
O=C1NC(c2ccccc2)(c2ccccc2)C(=O)N1COP(=O)(O)O [fosphenytoin]	0.95
C1=Cc2cccc(OCC3CNCCO3)c2C1 (stereo not shown) [indeloxazine]	0.94
CC(C)Cc1ccc(C(C)C(=O)NCCCN(C)C)cc1 (stereo not shown) [JMC_07]	0.75
CC[C@@]1(O)C(=O)OCc2c1cc1n(c2=O)Cc2cc3c(CN(C)C)c(O)ccc3nc2-1 [Topotecan]	0.25
O=C(O)Cc1ccccc1Oc1ccc(Cl)cc1Cl [fenclofenac]	0.99
CC(=O)/N=c1/sc(S(N)(=O)=O)nn1C [methazolamide]	0.55
CC1Cc2ccccc2N1NC(=O)c1ccc(Cl)c(S(N)(=O)=O)c1 (stereo not shown) [indapamide]	0.76
Nc1ccc(S(=O)(=O)Nc2ccc(Cl)nn2)cc1 [sulfachlorpyridazine]	0.97

Same assay, conditions: plasma; cited from earlier work

Molecule	PPB (fb)
C=CC[N@@+]12CC[C@@]34c5ccccc5N5/C=C6/[C@H]7C[C@H]8[C@@]9(CC[N@@+]8(CC=C)C/C7=C/CO)c7ccccc7N(/C=C(/[C@@H](C[C@@H]31)/C(=C\CO)C2)[C@H]54)[C@@H]69 [alcuronium]	0.4
dicoumarol	0.99
CCN1CCN(C(=O)N[C@@H](C(=O)N[C@@H]2C(=O)N3[C@@H]2SC(C)(C)[C@@H]3C(=O)O)c2ccccc2)C(=O)C1=O [Piperacillin]	0.4
CCC(C)C1OC2(CCC1C)CC1CC(C/C=C(\C)C(OC3CC(OC)C(OC4CC(OC)C(O)C(C)O4)C(C)O3)C(C)/C=C/C=C3\COC4C(O)C(C)=CC(C(=O)O1)C34O)O2 (stereo not shown) [ivermectin]	0.93
CC(=O)C1(O)CCC2C3CCC4=CC(=O)CCC4(C)C3CCC21C (stereo not shown) [17-hydroxyprogesterone]	0.85
O=C1CN=C(c2ccccc2)c2cc(Cl)ccc2N1CC1CC1 [prazepam]	0.97
phenprocoumon	0.99
O=NN(CCCl)C(=O)NCCCl [Carmustine (BCNU)]	0.77
CN1CCN=C(c2ccccc2)c2cc(Cl)ccc21 [medazepam]	0.99
norgestimate	0.99
C=C(Br)CC1(C(C)C)C(=O)NC(=O)NC1=O [ibomal]	0.34
CN[C@@H](C)Cc1ccccc1 [Methamphetamine]	0.15
CC1(C)S[C@@H]2[C@H](NC(=O)[C@H](N)c3ccccc3)C(=O)N2[C@H]1C(=O)O [Ampicillin]	0.16
CCO [ethanol]	0
